Test [1] has as its target T1, NEP enzyme (Homo sapiens, UniProt P08473).
T1 construct: purchased R&D Systems, Minneapolis, Minn; 1182-ZN
In words: In vitro enzyme inhibition assay at NEP. As to conditions: fluorogenic peptide substrate; human or rat NEP not given; read-out: pIC50 for the NEP enzyme (converted). Type of test: biochemical. How it is done:
The inhibitory activities of compounds at human and rat NEP and human ACE were determined using in vitro assays as described below.
Rat NEP was prepared from the kidneys of adult Sprague Dawley rats. Whole kidneys were washed in cold PBS and brought up in ice-cold lysis buffer (1% Triton X-114, 150 mM NaCl, 50 mM Tris pH 7.5; Bordier (1981) J. Biol. Chem. 256:1604-1607) in a ratio of 5 mL of buffer for every gram of kidney. Samples were homogenized using a polytron hand held tissue grinder on ice. Homogenates were centrifuged at 1000×g in a swinging bucket rotor for 5 minutes at 3° C. The pellet was resuspended in 20 mL of ice cold lysis buffer and incubated on ice for 30 minutes. […] Protein concentrations were quantitated using a BCA detection system with BSA as a standard. […]
The assays were performed in 384-well white opaque plates at room temperature using the respective fluorogenic peptides at a concentration of 10 μM in assay buffer (50 mM Tris/HCl at 25° C., 100 mM NaCl, 0.01% Tween-20, 1 μM Zn, 0.025% BSA). […] The rat NEP enzyme preparation was used at a concentration that yielded quantitative proteolysis of 3 μM of Mca-RRL within 20 minutes at room temperature.
Assays were started by adding 25 μL of enzyme to 12.5 μL of test compound at 12 concentrations (10 μM to 20 pM). […] Plates were read on a fluorometer with excitation and emission wavelengths set to 320 nm and 405 nm, respectively. […]

Test [2] addresses T2, human AT1 receptor (Homo sapiens, UniProt P30556).
T2 construct: expressed in transfected cells; membrane preparation
T2 sequence (P30556 1-359): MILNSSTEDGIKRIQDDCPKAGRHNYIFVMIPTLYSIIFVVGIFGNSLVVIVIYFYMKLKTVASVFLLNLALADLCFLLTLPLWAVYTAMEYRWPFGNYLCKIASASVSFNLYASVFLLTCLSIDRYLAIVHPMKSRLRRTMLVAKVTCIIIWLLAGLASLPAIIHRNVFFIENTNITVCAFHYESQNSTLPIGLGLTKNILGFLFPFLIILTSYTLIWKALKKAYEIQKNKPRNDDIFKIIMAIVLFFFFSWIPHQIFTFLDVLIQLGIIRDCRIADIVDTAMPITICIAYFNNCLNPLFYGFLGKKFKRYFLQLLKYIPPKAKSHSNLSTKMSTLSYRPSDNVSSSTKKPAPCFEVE
In words: AT1 radioligand binding assay. The note with it: displacement of [Eu]AngII at 2 nM, membranes of CHO-K1 cells expressing human AT1 receptor; read-out: pKi at the AT1 receptor (converted). On the procedure: These in vitro assays were used to assess the ability of test compounds to bind to the AT1 and the AT2 receptors.
Chinese hamster ovary (CHO-K1) derived cell lines stably expressing the cloned human AT1 or AT2 receptors, respectively, were grown in HAM's-F12 medium supplemented with 10% fetal bovine serum, 10 μg/ml penicillin/streptomycin, and 500 μg/ml geneticin in a 5% CO2 humidified incubator at 37° C. AT2 receptor expressing cells were grown in the additional presence of 100 nM PD123,319 (AT2 antagonist). When cultures reached 80-95% confluence, the cells were washed thoroughly in PBS and lifted with 5 mM EDTA. Cells were pelleted by centrifugation and snap frozen in MeOH-dry ice and stored at −80° C. until further use.
For membrane preparation, cell pellets were resuspended in lysis buffer (25 mM Tris/HCl pH 7.5 at 4° C., 1 mM EDTA, and one tablet of Complete Protease Inhibitor Cocktail Tablets with 2 mM EDTA per 50 mL buffer (Roche cat. #1697498, Roche Molecular Biochemicals, Indianapolis, Ind.)) and homogenized using a tight-fitting Dounce glass homogenizer (10 strokes) on ice. The homogenate was centrifuged at 1000×g, the supernatant was collected and centrifuged at 20,000×g. […] Protein concentration of the membrane suspension was determined by the method described in Bradford (1976) Anal Biochem. 72:248-54. […]

T1 sequence (P08473 52-750 limits assumed): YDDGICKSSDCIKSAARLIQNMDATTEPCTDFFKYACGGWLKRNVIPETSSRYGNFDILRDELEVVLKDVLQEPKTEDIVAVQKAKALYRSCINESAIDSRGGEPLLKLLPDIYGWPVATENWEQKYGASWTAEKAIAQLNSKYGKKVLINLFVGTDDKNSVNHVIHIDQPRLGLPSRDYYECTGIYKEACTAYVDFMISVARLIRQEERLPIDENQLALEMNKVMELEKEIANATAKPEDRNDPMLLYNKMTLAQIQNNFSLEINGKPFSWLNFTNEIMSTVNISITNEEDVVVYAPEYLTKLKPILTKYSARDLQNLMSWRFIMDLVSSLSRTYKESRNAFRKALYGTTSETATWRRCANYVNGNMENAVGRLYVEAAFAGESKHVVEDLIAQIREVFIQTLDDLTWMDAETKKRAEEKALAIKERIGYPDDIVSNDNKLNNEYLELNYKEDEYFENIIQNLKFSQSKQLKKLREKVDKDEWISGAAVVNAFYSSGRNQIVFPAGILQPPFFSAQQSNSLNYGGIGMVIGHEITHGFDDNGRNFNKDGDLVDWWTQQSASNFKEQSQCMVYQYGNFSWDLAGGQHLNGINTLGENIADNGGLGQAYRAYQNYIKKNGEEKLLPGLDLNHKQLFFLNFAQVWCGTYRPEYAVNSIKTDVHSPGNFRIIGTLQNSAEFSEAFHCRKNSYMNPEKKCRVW

With `CCCCCN(Cc1ccc(-c2ccccc2-c2nnn[nH]2)cc1)C(=O)[C@H](CC(=O)O)NC(=O)C(CS)CC(C)C` (stereo partly drawn) [Example 1, (S)-3-(2-Mercaptomethyl-4-methylpentanoylamino)-N-pentyl-N-[2′1-(1H-tetrazol-5-yl)biphenyl-4-ylmethyl]succinamic Acid], the IC50 in test [1] is not above 100 nM. The Ki in test [2] was less than 10 nM.

`CCCCCN(Cc1ccc(-c2ccccc2-c2nnn[nH]2)cc1)C(=O)N1C[C@@H](NC(=O)C(CC(C)C)C(=O)NO)C[C@H]1C(=O)O` (stereo partly drawn) [Example 2, (2S,4S)-4-(2-Hydroxycarbamoyl-4-methylpentanoylamino)-1-{pentyl[2′-(1H-tetrazol-5-yl)biphenyl-4-ylmethyl]carbamoyl}pyrrolidine-2-carboxylic Acid]: the IC50 in test [1] is not above 100 nM. The Ki in test [2] was less than 10 nM.

Source of the values: US8236839B2, “Dual-acting antihypertensive agents” (Theravance, Inc., priority 2007, dated 2012).
